Experimental data: patent publication US20090311249A1, “Capecitabine Combination Therapy” (priority 2006, published 2009)

Tests used:
VEGF = details: patients treated with AP23573; cited from earlier work
[1] = In vitro combination experiments of AP23573 with cytotoxics; assay type: cell-based; details: with several cytotoxics including 5-fluorouracil (5FU)
[2] = test system: VEGF production in tumor cells; details: in vitro; cited from earlier work
[3] = Phase I and phase 2 single-agent trials of AP23573; assay type: in vivo, human; details: other dosing schedules
[4] = Phase 1b trial: pharmacokinetics of CAPE and its key metabolites in plasma; assay type: in vivo, human; details: AP23573 co-administered with CAPE
Description: Planned pharmacokinetic (PK) and pharmacodynamic (PD) studies included: analysis of plasma, peripheral blood mononuclear cells (PBMC), skin, and tumor samples for effects on mTOR associated pathways*, VEGF* levels and the metabolism of CAPE and fluoropyrimidines (results of studies marked with a “*” are not presented herein).

Structure (SMILES) | VEGF levels (VEGF) | combination effect in vitro [1] | effect on VEGF production [2] | dose limiting toxicity [3] | pharmacokinetics of 5FU [4]
CO[C@H]1C[C@@H]2CC[C@@H](C)[C@@](O)(O2)C(=O)C(=O)N2CCCC[C@H]2C(=O)O[C@H]([C@H](C)C[C@@H]2CC[C@@H](OP(C)(C)=O)[C@H](OC)C2)CC(=O)[C@H](C)/C=C(\C)[C@@H](O)[C@@H](OC)C(=O)[C@H](C)C[C@H](C)/C=C/C=C/C=C/1C [AP23573] | reduced VEGF levels | at least additive | inhibits VEGF production | oral mucositis | –
O=c1[nH]cc(F)c(=O)[nH]1 [5FU, 5-fluorouracil] | – | – | – | – | not be impacted
